One assay concerns the target T1, BChE (Homo sapiens, UniProt P06276).
T1 construct: purchased Sigma Inc
Kind of assay: BChE inhibition assay (Ellman method with slight modifications). Type of assay: biochemical. Conditions: for inhibition at 500 µM: read-out: BChE Inhibition, Inhibition (%) at 0.5 mM. The protocol: (§1) The AChE and BChE inhibition activity was performed according to the method of Ellman with slight modifications. Total volume of the reaction mixture was 100 µL contained 60 µL Na2HPO4 buffer with concentration of 50 mM and pH 7.7. A 10 µL test compound (0.5 mM per well) was added, followed by the addition of 10 µL enzyme (0.005 unit AChE, 0.5 unit BChE per well, Sigma Inc). […] The reaction was initiated by the addition of 10 µL of 0.5 mM per well substrate (acetylthiocholine iodide or butyrylthiocholine bromide), followed by the addition of 10 µL DTNB (0.5 mM per well). […] Synergy HT (BioTek, USA) 96-well plate reader was used in all experiments. All experiments were carried out with their respective controls in triplicate. […] The percent inhibition was calculated by the help of following equation.
(§2) Inhibition%=Control−Test/Control×100
(DTNB colorimetry detects thiols as they appear.)

For a further assay, the target named is T2, AChE (Homo sapiens, UniProt P22303).
T2 construct: purchased Sigma Inc
T2 sequence (P22303 32-614): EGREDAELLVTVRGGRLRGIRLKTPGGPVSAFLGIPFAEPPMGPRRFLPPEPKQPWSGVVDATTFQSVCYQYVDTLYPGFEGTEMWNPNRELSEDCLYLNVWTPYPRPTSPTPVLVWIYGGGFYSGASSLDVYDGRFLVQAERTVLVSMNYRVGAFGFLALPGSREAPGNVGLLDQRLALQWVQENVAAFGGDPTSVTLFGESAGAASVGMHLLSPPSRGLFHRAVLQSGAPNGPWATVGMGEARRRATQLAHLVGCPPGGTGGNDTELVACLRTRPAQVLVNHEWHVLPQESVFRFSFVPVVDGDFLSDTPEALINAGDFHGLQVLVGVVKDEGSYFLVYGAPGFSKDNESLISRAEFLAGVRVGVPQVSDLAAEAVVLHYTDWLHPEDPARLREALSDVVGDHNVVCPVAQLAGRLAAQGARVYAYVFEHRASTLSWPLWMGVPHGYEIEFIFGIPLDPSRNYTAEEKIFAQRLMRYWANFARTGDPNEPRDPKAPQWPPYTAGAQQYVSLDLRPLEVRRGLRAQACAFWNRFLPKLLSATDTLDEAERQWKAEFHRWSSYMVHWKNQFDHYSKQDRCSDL
Kind of assay: biochemical. It is filed as biochemical. The following applies: for inhibition at 500 µM: read-out: AChE Inhibition, Inhibition (%) at 0.5 mM. The method, then: as §1, §2

The mark [1] stands for this setting: 0.5 mM test compound, mean with SEM.
The mark [2] stands for this setting: mean with SEM, read-out: BChE Inhibition, IC50.
[3] abbreviates: mean with SEM, read-out: AChE Inhibition, IC50.

Like-named read-outs stand apart in the source and are kept apart here.

T1 sequence (P06276 29-602): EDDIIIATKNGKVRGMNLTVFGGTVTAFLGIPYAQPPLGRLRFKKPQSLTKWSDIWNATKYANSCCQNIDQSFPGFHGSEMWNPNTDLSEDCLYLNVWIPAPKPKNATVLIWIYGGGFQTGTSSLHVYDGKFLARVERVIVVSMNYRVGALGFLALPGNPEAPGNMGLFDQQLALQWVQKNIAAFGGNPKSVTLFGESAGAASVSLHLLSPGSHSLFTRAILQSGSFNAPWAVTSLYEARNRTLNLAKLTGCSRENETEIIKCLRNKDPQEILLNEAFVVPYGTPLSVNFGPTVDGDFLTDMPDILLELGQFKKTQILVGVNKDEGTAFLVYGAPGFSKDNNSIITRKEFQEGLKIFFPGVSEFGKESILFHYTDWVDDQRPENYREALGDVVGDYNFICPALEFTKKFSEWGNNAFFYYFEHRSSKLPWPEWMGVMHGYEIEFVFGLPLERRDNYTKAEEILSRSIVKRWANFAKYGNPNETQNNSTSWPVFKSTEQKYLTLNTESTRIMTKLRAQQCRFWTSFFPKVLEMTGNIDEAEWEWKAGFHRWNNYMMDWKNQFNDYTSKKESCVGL

In general, inhibition refers to the percentage by which the read-out fell short of the control. Usually IC50 stands for the concentration that gives 50% inhibition. As to `COC(=O)Cc1c[nH]c2ccccc12` [Compound 2], the inhibition at 500 µM at BChE (setting [1]) is 59.82 ± 0.15%; on AChE (setting [1]) it was 70.61 ± 0.34%. The figures for the IC50 at BChE (setting [2]) and on AChE (setting [3]) were 184.2 ± 0.21 µM and 138.5 ± 0.21 µM, respectively.

For the molecule `NNC(=O)Cc1c[nH]c2ccccc12` [Compound 3], at BChE, the IC50 stood at 139.21 ± 0.07 µM and the inhibition at 500 µM is 73.95 ± 0.67%. Moreover, on AChE, the IC50 was 152.11 ± 0.07 µM and the inhibition at 500 µM amounted to 69.16 ± 0.25%.

As to `O=C(Cc1c[nH]c2ccccc12)N/N=C/c1ccccc1` [Compound 4a], the results for the inhibition at 500 µM on BChE (setting [1]) and at AChE (setting [1]) were 79.58 ± 0.42% and 63.11 ± 0.52%, respectively. The values for the IC50 on BChE (setting [2]) and at AChE (setting [3]) were 86.31 ± 0.14 µM and 198.61 ± 0.14 µM, respectively.

With `O=C(Cc1c[nH]c2ccccc12)N/N=C/c1ccccc1O` [Compound 4b], the “inhibitory activity against BChE (in words)” value on BChE was “weak”. The inhibition at 500 µM on BChE (setting [1]) amounted to 43.16 ± 0.18%; on AChE (setting [1]) it was 75.5 ± 0.33%. Moreover, the IC50 on AChE (setting [3]) amounted to 103.11 ± 0.05 µM.

As to `COc1ccc(/C=N/NC(=O)Cc2c[nH]c3ccccc23)cc1` [Compound 4c], the inhibition at 500 µM is 50.2 ± 0.69% at BChE (setting [1]) and 75.5 ± 0.56% at AChE (setting [1]). Moreover, the IC50 on AChE (setting [3]) is 109.6 ± 0.11 µM.

Consider `Cc1ccc(/C=N/NC(=O)Cc2c[nH]c3ccccc23)cc1` [Compound 4d], for which, at BChE, the “inhibitory activity against BChE (in words)” value is listed as “weak”. Also, the results for the inhibition at 500 µM on BChE (setting [1]) and at AChE (setting [1]) were 43.6 ± 0.55% and 79.54 ± 0.54%, respectively. The half-inhibitory concentration (IC50) at AChE (setting [3]) stood at 98.81 ± 0.14 µM.

For the molecule `C/C(=N\NC(=O)Cc1c[nH]c2ccccc12)c1ccccc1` [Compound 4e], the inhibition at 500 µM came out at 68.43 ± 0.18% on BChE (setting [1]) and 66.86 ± 0.36% on AChE (setting [1]). Also, the IC50 on BChE (setting [2]) was 146.21 ± 0.08 µM; on AChE (setting [3]), 174.51 ± 0.11 µM.

In the case of `O=C(Cc1c[nH]c2ccccc12)NN=C(c1ccccc1)c1ccccc1` [Compound 4f], the inhibition at 500 µM at BChE (setting [1]) came to 89.51 ± 0.69%; on AChE (setting [1]), 89.3 ± 0.91%. The figures for the IC50 on BChE (setting [2]) and on AChE (setting [3]) were 59.81 ± 0.06 µM and 91.21 ± 0.06 µM, respectively.

As to `O=C(Cc1c[nH]c2ccccc12)N/N=C/c1ccc(Cl)cc1` [Compound 4g], the inhibition at 500 µM at BChE (setting [1]) turned out to be 30.1 ± 0.58%; at AChE (setting [1]), 75.79 ± 0.25%. Further, on AChE (setting [3]), the IC50 turned out to be 106.51 ± 0.07 µM.

For `CC(=O)NNC(=O)Cc1c[nH]c2ccccc12` [Compound 5a, N'-acetyl-2-(1H-indol-3-yl)acetohydrazide], the inhibition at 500 µM turned out to be 90.81 ± 0.69% at BChE (setting [1]) and 60.52 ± 0.25% at AChE (setting [1]). The IC50 was 55.21 ± 0.12 µM on BChE (setting [2]) and 298.61 ± 0.15 µM at AChE (setting [3]).

For `O=C(Cc1c[nH]c2ccccc12)NNC(=O)C(F)(F)F` [Compound 5b, N'-(2-(1H-indol-3-yl)acetyl)-2,2,2-trifluoroacetohydrazide], the values for the inhibition at 500 µM at BChE (setting [1]) and at AChE (setting [1]) were 86.64 ± 0.24% and 75.22 ± 0.41%, respectively. The IC50 at BChE (setting [2]) was found to be 68.91 ± 0.07 µM; on AChE (setting [3]) it was 152.31 ± 0.07 µM.

Take `O=C(Cc1c[nH]c2ccccc12)NNC(=O)Oc1ccccc1` [Compound 5c, Phenyl 2-(2-(1H-indol-3-yl)acetyl)hydrazinecarboxylate]: at BChE, the “inhibitory activity against BChE (in words)” value is “weak” and the inhibition at 500 µM was determined as 39.29 ± 0.25%. On AChE, the “inhibitory activity against AChE (in words)” value is on record as “weak” and the inhibition at 500 µM came to 55.91 ± 0.33%.

Take `Cc1ccc(S(=O)(=O)NNC(=O)Cc2c[nH]c3ccccc23)cc1` [Compound 6a, N'-(2-(1H-Indol-3-yl)acetyl)-4-methylbenzenesulfonohydrazide]: the inhibition at 500 µM at BChE (setting [1]) was found to be 72.52 ± 0.33%; at AChE (setting [1]), 78.11 ± 0.36%. The half-maximal inhibitory concentration (IC50) at BChE (setting [2]) turned out to be 101.2 ± 0.16 µM; on AChE (setting [3]), 121.4 ± 0.16 µM.

Regarding `O=C(Cc1c[nH]c2ccccc12)NNS(=O)(=O)c1ccccc1[N+](=O)[O-]` [Compound 6b, N'-(2-(1H-Indol-3-yl)acetyl)-2-nitrobenzenesulfonohydrazide], on BChE, the “inhibitory activity against BChE (in words)” value was “weak”. Moreover, the inhibition at 500 µM on BChE (setting [1]) stood at 42.61 ± 0.42%; at AChE (setting [1]) it was 46.41 ± 0.21%. In addition, the “inhibitory activity against AChE (in words)” value at AChE was “weak”.

Turning to `O=C(Cc1c[nH]c2ccccc12)NNS(=O)(=O)c1cccc([N+](=O)[O-])c1` [Compound 6c, N'-(2-(1H-Indol-3-yl)acetyl)-3-nitrobenzenesulfonohydrazide], the results for the inhibition at 500 µM at BChE (setting [1]) and on AChE (setting [1]) were 81.24 ± 0.52% and 56.21 ± 0.25%, respectively. For the same molecule, the IC50 at BChE (setting [2]) worked out at 78.51 ± 0.21 µM. Moreover, on AChE, the “inhibitory activity against AChE (in words)” value is recorded as “weak”.

With `O=C(Cc1c[nH]c2ccccc12)NNS(=O)(=O)c1ccc([N+](=O)[O-])cc1` [Compound 6d, N'-(2-(1H-Indol-3-yl)acetyl)-4-nitrobenzenesulfonohydrazide], the values for the inhibition at 500 µM at BChE (setting [1]) and at AChE (setting [1]) were 63.69 ± 0.61% and 58.62 ± 0.52%, respectively. Also, the IC50 at BChE (setting [2]) is less than 400 µM. Further, on AChE, the “inhibitory activity against AChE (in words)” value is given as “weak”.

As to `O=C(Cc1c[nH]c2ccccc12)NNS(=O)(=O)c1ccc(Br)cc1` [Compound 6e, N'-(2-(1H-indol-3-yl)acetyl)-4-bromobenzenesulfonohydrazide], the inhibition at 500 µM was 81.02 ± 0.14% on BChE (setting [1]) and 90.78 ± 0.32% on AChE (setting [1]). In addition, the concentration for half-maximal inhibition (IC50) amounted to 73.52 ± 0.04 µM on BChE (setting [2]) and 68.52 ± 0.04 µM on AChE (setting [3]).

The values are drawn from publication PMC3977535, “Design and Synthesis of New Dual Binding Site Cholinesterase Inhibitors: in vitro Inhibition Studies with in silico Docking” (Letters in Drug Design & Discovery, 2014).
